Usually inhibition stands for the drop in the measured response relative to a control, in per cent. In general, IC50 refers to the concentration needed to halve the response being measured.

Calls of active or inactive are those of the source.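 How the source made its calls: active means inhibition above 30% at one or more tested concentrations in the dose response; inactive means inhibition below 30% at every tested concentration.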

Tested on in one assay: not listed separately
The experiment in a line: PhoP regulon inhibitors in S. Typhimurium, SAR follow-up, synthesized compounds, round 3, GFP (AID 434996). The note with it: S. Typhimurium PhoP-regulated promoter GFP reporter, 4 h; at 150 µM (top of the series).
Turning to `Cc1ccccc1CNC(=S)Nc1ccncc1`, the inhibition was 15.3% (inactive).

As for `O=C(Nc1cccc(F)c1)N1CCCN(Cc2ccccc2F)C1`, the inhibition was 23.5% (inactive).

On to `O=C(Nc1ccc(Cl)cc1)N1CCCN(Cc2ccccc2Br)C1`, for which the inhibition was 26.3% (inactive).

As to `O=C(Nc1cccc(C(F)(F)F)c1)N1CCCN(Cc2ccccc2F)C1`, the inhibition is 8.93% (inactive).

Regarding `Cc1ccc(NC(=O)N2CCCN(Cc3ccccc3F)C2)cc1`, the inhibition was -3.01% (inactive).

Turning to `O=C(Nc1cccc(I)c1)N1CCCN(Cc2ccccc2F)C1`, the inhibition is 20.6% (inactive).

As to `Cc1cccc(NC(=O)N2CCCN(Cc3ccccc3F)C2)c1`, the inhibition was 21.2% (inactive).

For `N#Cc1ccccc1NC(=S)NCc1ccc(Cl)cc1`, the inhibition was -0.55% (inactive).

Regarding `N#Cc1ccc(NC(=S)NCc2ccc(Cl)cc2)cc1`, the inhibition was -4.09% (inactive).

The next assay has as its system S. Typhimurium PhoP-regulated promoter GFP reporter, 4 h. The description is as above.
Settings: not given
Consider `S=C(NCCc1ccc(Cl)cc1)Nc1ccncc1`, for which the IC50 was 29.2 µM.

For `O=C(Nc1ccc(I)cc1)N1CCCN(Cc2ccccc2F)C1`, the IC50 was 148 µM.

Take `O=C(Nc1ccc(Cl)cc1)N1CCCN(Cc2ccc(Br)cc2)C1`: the IC50 is 135 µM.

(Values after PubChem BioAssay AID434996 (Southern Research Specialized Biocontainment Screening …, 2010).)
